Source: patent EP0596449A2, “Serotonin receptor antagonists for treating myocardial ischemia” (E.R. SQUIBB & SONS, INC., priority 1992, dated 1994)
Marks after values point to notes of the source that are not given here.

Tested on: globally ischemic rat hearts
Assay: Global ischemia (25 min) and reperfusion (30 min) in isolated perfused rat hearts, 5HT2 antagonists
Experimental: To determine the effect of serotonin receptor agonists and antagonists, male Sprague-Dawley rats (450-550 g) were prepared as described below. The rats were anesthetized using 100 mg/kg sodium pentobarbital (i.p.). They were intubated and then treated with i.v. heparin (1000 U/kg). While being mechanically ventilated, their hearts were perfused in situ via retrograde cannulation of the aorta. The hearts were then excised and […] moved to a Langendorff apparatus where they were perfused with Krebs-henseleit bicarbonate buffer solution ((mM): 112 NaCI, 25 NaHC03, 5 KCI, 1.2 MgS04, 1 KH2P04, 1.25 CaC12, 2 pyruvate and 11.5 dextrose bubbled with 95% 02 - 5% C02) at a constant perfusion pressure (85 mm Hg). A water-filled latex balloon attached to a metal cannula was then inserted into the left ventricle and connected to a Statham pressure transducer for measurement of left ventricular pressure. The hearts were allowed to equilibrate for 15 min, at which time end diastolic pressure (EDP) was adjusted to 5 mm Hg and this balloon volume was maintained for the duration of the experiment. Pre-ischemia or pre-drug function, heart rate and coronary flow (extracorporeal electromagnetic flow probe) were then measured. Left ventricular developed pressure (LVDP) was calculated from the difference between left ventricular peak systolic pressure and EDP. Cardiac temperature was maintained throughout the experiment by submerging the hearts in 37 ° C buffer which was allowed to accumulate in a stoppered, heated chamber.
The model of global ischemia in isolated rat hearts was designed such that any protective effects observed are generally due to a direct cardioprotective effect and not to effects on cornonary or peripheral vascular tone. Also, because the hearts are perfused with an oxygenated buffer solution, platelets or the normal components of an inflammatory response are probably not important mediators of the ischemic/reperfusion injury observed in this model. […] Agents which exert their protective effects either through their effects on the peripheral or coronary vasculature such as nitrates or agents which act on blood or act on some component of the inflammatory response such as thromboxane A2 receptor antagonists are generally ineffective in this model.
The hearts were divided into the following groups: 1. Vehicle (0.1% DMSO) treatment beginning 10 minutes before the onset of ischemia (n = 8). 2. 0.3-10 µM ketanserin treatment beginning 10 minutes before the onset of ischemia (n = 4-5 per group). 3. 10 µM ketanserin given only during reperfusion (n = 4). 4. 0.1-10 µM cinanserin treatment beginning 10 minutes before global ischemia (n = 4-10). 5. 1-10 µM LY 53857 treatment beginning 10 minutes before the onset of ischemia (n = 4 per group). After 10 minutes of vehicle or drug pretreatment, the hearts were subjected to 25 minutes of total global ischemia which was initiated by shutting off the perfusate flow. Reperfusion was begun (without drug except in the case of group 3 above) and allowed to continue for 30 minutes. At this time, final measurements of EDP, LVDP and coronary flow were obtained. Cumulative LDH relase was measured in the reperfusate and was used as the index of cellular and membrane viability. In all hearts, the time to contracture during ischemia was measured and used as an index of cardioprotection during ischemia. Time to contracture is defined as the time (minutes) necessary for the first 5 mm Hg increase in EDP to occur during global ischemia. The data were expressed as the percent change in time to contracture from vehicle.

[1] = 0.3 µM, 30 Min Post-Reperfusion
[2] = 0.3 µM, Pre-Ischemia, Post-Drug
[3] = 3 µM (Reper), given only during reperfusion, 30 Min Post-Reperfusion
[4] = 3 µM (Reper), given only during reperfusion, Pre-Ischemia, Post-Drug
[5] = 3 µM (Reper), given only during reperfusion, Pre-Ischemia, Pre-Drug

`O=C(c1ccc(F)cc1)C1CCN(CCn2c(=O)[nH]c3ccccc3c2=O)CC1` [Ketanserin, ketanserin] was tested, and the “Coronary Flow” value [1] was 13±2^a mL/min/g, the HR [1] was 266±18^a beats/min and the LVDP [1] was 20±5^a mmHg. The “Coronary Flow” value [2] was 16 ± 2 mL/min/g, the HR [2] was 275±6 beats/min and the LVDP [2] was 141±10 mmHg. The “Coronary Flow” value (0.3 µM, Pre-Ischemia, Pre-Drug) was 20 ± 2 mL/min/g, the HR (0.3 µM, Pre-Ischemia, Pre-Drug) was 291±2 beats/min and the LVDP (0.3 µM, Pre-Ischemia, Pre-Drug) was 146±5 mmHg. For the same compound, the “Coronary Flow” value (1 µM, 30 Min Post-Reperfusion) was 10±1^a mL/min/g, the HR (1 µM, 30 Min Post-Reperfusion) was 243±35^a beats/min and the LVDP (1 µM, 30 Min Post-Reperfusion) was 29±5^a mmHg. For the same compound, the “Coronary Flow” value (1 µM, Pre-Ischemia, Post-Drug) was 15 ± 1 mL/min/g, the HR (1 µM, Pre-Ischemia, Post-Drug) was 272±11 beats/min and the LVDP (1 µM, Pre-Ischemia, Post-Drug) was 128±4 mmHg. For the same compound, the “Coronary Flow” value (1 µM, Pre-Ischemia, Pre-Drug) was 19 ± 1 mL/min/g, the HR (1 µM, Pre-Ischemia, Pre-Drug) was 311±16 beats/min and the LVDP (1 µM, Pre-Ischemia, Pre-Drug) was 130±6 mmHg. The “Coronary Flow” value [3] was 14±1^a mL/min/g, the HR [3] was 196±14^a,b beats/min and the LVDP [3] was 33±6^a mmHg. For the same compound, the “Coronary Flow” value [4] was 17 ± 2 mL/min/g, the HR [4] was 285±11 beats/min and the LVDP [4] was 130±5 mmHg. For the same compound, the “Coronary Flow” value [5] was 19 ± 1 mL/min/g, the HR [5] was 292±15 beats/min and the LVDP [5] was 134±4 mmHg. For the same compound, the “Coronary Flow” value (3 µM, 30 Min Post-Reperfusion) was 13±1^a mL/min/g, the HR (3 µM, 30 Min Post-Reperfusion) was 246±22^a beats/min and the LVDP (3 µM, 30 Min Post-Reperfusion) was 53±7^a,b mmHg. The “Coronary Flow” value (3 µM, Pre-Ischemia, Post-Drug) was 15 ± 1 mL/min/g, the HR (3 µM, Pre-Ischemia, Post-Drug) was 244±16^a beats/min and the LVDP (3 µM, Pre-Ischemia, Post-Drug) was 127±9 mmHg. For the same compound, the “Coronary Flow” value (3 µM, Pre-Ischemia, Pre-Drug) was 19 ± 1 mL/min/g, the HR (3 µM, Pre-Ischemia, Pre-Drug) was 310±13 beats/min and the LVDP (3 µM, Pre-Ischemia, Pre-Drug) was 128±8 mmHg. For the same compound, the “Coronary Flow” value (10 µM, 30 Min Post-Reperfusion) was 13±2^a mL/min/g, the HR (10 µM, 30 Min Post-Reperfusion) was 220±22^a beats/min and the LVDP (10 µM, 30 Min Post-Reperfusion) was 66±4^a,b mmHg. For the same compound, the “Coronary Flow” value (10 µM, Pre-Ischemia, Post-Drug) was 14 ± 2 mL/min/g, the HR (10 µM, Pre-Ischemia, Post-Drug) was 196±19^a,b beats/min and the LVDP (10 µM, Pre-Ischemia, Post-Drug) was 128±5 mmHg. For the same compound, the “Coronary Flow” value (10 µM, Pre-Ischemia, Pre-Drug) was 19 ± 1 mL/min/g, the HR (10 µM, Pre-Ischemia, Pre-Drug) was 290±6 beats/min and the LVDP (10 µM, Pre-Ischemia, Pre-Drug) was 135±5 mmHg. For the same compound, the EC25 (Rattus norvegicus, drug given 10 minutes before global ischemia, read-out: EC25 (concentration which increased the time to contracture 25% above vehicle group values)) was 5.5 µM, the “cumulative LDH release during reperfusion” value (given only during reperfusion (Reper)) was “did not cause a reduction in LDH release” and the “protective effect for any variable measured” value (given only during reperfusion at 3 µM) was “no protective effect”. The “reperfusion LDH release” value (only at the 10 µM concentration, Figure 2B) was “significantly reduced LDH relase”.
